From PMC2724708, “Adenosine Kinase of T. b. rhodesiense Identified as the Putative Target of 4-[5-(4-phenoxyphenyl)-2H-pyrazol-3-yl]morpholine Using Chemical Proteomics” (PLoS Neglected Tropical Diseases, 2009)
In brackets after ≈: the same amount, converted by molar mass.

Tests used:
[1] = target: T1, adenosine kinase of T. b. rhodesiense (TbrAK) (Trypanosoma brucei rhodesiense, UniProt Q584S0); assay: HPLC activity assay for TbrAK; format: biochemical; settings: for activity at 50 µM: 37°C, ADP/ATP ratio, read-out: TbrAK activity in presence of compound (% of activity without compound); for concentration dependence of the activation effect: range 1–750 µM, up to solubility limit
T1 sequence (Q584S0 1-345): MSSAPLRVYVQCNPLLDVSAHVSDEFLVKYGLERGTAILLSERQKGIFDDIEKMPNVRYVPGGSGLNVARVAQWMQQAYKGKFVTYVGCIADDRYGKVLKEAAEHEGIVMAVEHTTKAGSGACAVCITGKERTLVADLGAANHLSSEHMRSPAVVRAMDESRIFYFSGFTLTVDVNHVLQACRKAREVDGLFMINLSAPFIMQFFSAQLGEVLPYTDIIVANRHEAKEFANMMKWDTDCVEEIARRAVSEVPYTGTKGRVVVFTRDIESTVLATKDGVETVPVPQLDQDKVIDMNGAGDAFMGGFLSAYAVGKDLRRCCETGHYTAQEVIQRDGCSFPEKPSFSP
Procedure: TbrAK catalyzes the ATP-dependent phosphorylation of the 5′-hydroxyl moiety of adenosine to form AMP and ADP. The activity assay was based on HPLC separation of substrate and products (adenosine, AMP, ADP, and ATP). The mobile phase consisted of 35 mM KH2PO4, 6 mM tetrabutylammonium hydrogensulfate, (pH 7.0, adjusted with KOH), 125 mM EDTA, and 1% (v/v) acetonitrile. The separation was performed isocratically at a flow-rate of 1.5 ml/min and monitored at 254 nm. The standard reaction in 75 µl total volume containing 0.5 mM ATP, 0.5 mM adenosine, 0.5 mM MgCl2, 1% DMSO in buffer E1 (20 mM Hepes, 150 mM NaCl, pH 7.0) was started with the addition of 2 µg TbrAK (final concentration 0.7 µM) and incubated at 37°C for 10 min while shaking vigorously (600 rpm). […] All reactions were stopped by adding 75 µl mobile phase. 50 µl of the sample volume were injected for analysis and the resulting ADP/ATP ratios were calculated and used as a measure of activity. For comparative reasons the activity recorded in absence of compound was set to 100%. The mean of three independent measurements are reported.

[2] = target: T1, adenosine kinase of T. b. rhodesiense (TbrAK); assay: Thermal stability assay (CD spectroscopy) regarding TbrAK; format: binding; settings: for Tm of TbrAK: 13 µM TbrAK
Procedure: Thermal unfolding of TbrGAPDH and TbrAK was studied by circular dichroism (CD) spectroscopy at 220 nm within the temperature range of 20–90°C using a heating rate of 40°C/h.
(§1) TbrAK in buffer E1 (20 mM Hepes, 150 mM NaCl, pH 7.0) was used at 0.5 mg/ml (final concentration 13 µM). All measurements were done in a 0.5 mm cell and contained 0.1 % DMSO and 2.5 mM EDTA to prevent enzyme activity. Thermal stability was analyzed in presence of 500 µM substrate to record the maximum stability limit, whereas compounds 1 to 5 were used at a concentration of 50 µM, being the highest concentration achievable for compound 2, to allow comparison of all compounds at the same concentration. For evaluation of the CD spectra, the buffer spectrum was subtracted from the protein CD spectrum. All thermal unfolding curves were fitted to a two-state model that had been published recently. The mean of three independent experiments are reported. […]

[3] = target: T2, glycosomal T. b. rhodesiense glyceraldehyde-3-phosphate dehydrogenase (TbrGAPDH) (Trypanosoma brucei brucei, UniProt P22512); assay: Thermal stability assay (CD spectroscopy) regarding TbrGAPDH; format: binding; settings: for ∆Tm of TbrGAPDH: vs TbrGAPDH alone
T2 construct: made in house; host or cells: E. coli BL21(DE3), pET28a
Procedure: Thermal unfolding of TbrGAPDH and TbrAK was studied by circular dichroism (CD) spectroscopy at 220 nm within the temperature range of 20–90°C using a heating rate of 40°C/h. […]
All measurements were done in a 0.5 mm cell and contained 0.1 %
as §1, with “DMSO” for “TbrAK in buffer E1 (20 mM Hepes, 150 mM NaCl, pH 7.0) was used at 0.5 mg/ml (final concentration 13 µM). All measurements were done in a 0.5 mm cell and contained 0.1 % DMSO”

[4] = Solubility limit in the assay mixture; format: physicochemical; settings: HPLC activity assay mixture (buffer E1 with 1% DMSO), 37 °C, pH 7, aqueous buffer, kinetic from dmso stock, read-out: solubility limiting concentration
T. b. rhodesiense = test system: T. b. rhodesiense; parameters: method as in PMID 17949068; settings: in vitro, blood stage parasite; read-out: IC50 against blood stage T.b. rhodesiense; cited from earlier work
[5] = parameters: method as in PMID 17949068; settings: cited from earlier work
[6] = target: T1, adenosine kinase of T. b. rhodesiense (TbrAK); assay: Radiometric assay for kinetic study of TbrAK
Procedure: (§2) Kinetic constants for adenosine phosphorylation by TbrAK were obtained by monitoring the conversion of [2-^3H]adenosine to [2-^3H]AMP. Reactions were executed at 37°C in a final volume of 30 µl containing 20 mM Hepes (pH 7.0), 50 mM NaCl, 167 µM ATP, 167 µM MgCl2, 0.34% BSA, and 0.34% DMSO. […] The concentration of [2-^3H]adenosine (0.1–12 µM) was chosen in consideration of Michaelis–Menten conditions for initial velocity measurements. The reaction was started by the addition of 1 ng (0.88 nM) TbrAK. The reactions were incubated and 5 µl aliquots were spotted on 5 mm diameter DE81-cellulose disks placed in a 96-well plate to stop the reaction. The disks were washed 3 times with 250 µl 5 mM ammonium formate, once with H2O, transferred to scintillation vials, and then soaked with 2 ml of a displacement solution (100 mM HCl, 200 mM KCl) and gently shaken for 1 minute to elute the phosphorylated products [9]. After adding 10 ml scintillation liquid, the samples were counted in scintillation counter. Km and Vmax with respect to adenosine and Ki for adenosine substrate-inhibition in absence and presence of compound 1 were determined by non-linear fit of the data to the substrate-inhibition model described elsewhere [10].

[7] = test system: bloodstream-form T. b. brucei TbAK RNAi cells; assay: Drug sensitivity test (Alamar blue) on TbAK RNAi knock-down mutant; format: cell-based
Procedure: The construction of the T. b. brucei adenosine kinase gene knock-down mutant has been described recently. Expression of a stem-loop construct targeting TbAK was induced by addition of 10 µg/ml tetracycline to the medium. Down-regulation of TbAK expression was verified by Northern blotting. Parasites were cultivated and drug sensitivity was tested using the Alamar blue test. IC50 values were calculated by nonlinear fitting to the sigmoidal dose-response curve using Origin® software. The assays were performed in triplicates for at least four times.

[8] = substrate: Nc1ncnc2c1ncn2[C@@H]1O[C@H](CO)[C@@H](O)[C@H]1O; assay: purified protein, by the assay type; settings: other: in absence of compound 1, 167 µM ATP; pH 7.0; 37.0 °C
Procedure: as §2

[9] = 50 µM compound, 0.7 µM TbrAK, 10 min

T2 sequence (P22512 whole entry): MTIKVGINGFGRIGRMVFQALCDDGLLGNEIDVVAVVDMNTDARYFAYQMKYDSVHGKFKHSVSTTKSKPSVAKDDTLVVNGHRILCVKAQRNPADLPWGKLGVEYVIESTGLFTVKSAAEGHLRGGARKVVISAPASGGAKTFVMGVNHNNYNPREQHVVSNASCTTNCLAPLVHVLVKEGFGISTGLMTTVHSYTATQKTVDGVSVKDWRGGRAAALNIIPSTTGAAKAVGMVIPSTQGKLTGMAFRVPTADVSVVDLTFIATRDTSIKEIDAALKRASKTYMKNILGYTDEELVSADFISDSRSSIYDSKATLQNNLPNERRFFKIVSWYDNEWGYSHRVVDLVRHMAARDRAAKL

| Molecule | activity at 50 µM [1, 9] | concentration dependence of the activation effect [1] | Tm of TbrAK ([2]; compound at 50 µM) | ΔTm at 50 µM ([2]; read-out: ΔTm of TbrAK) | Tm of TbrGAPDH ([3]; compound at 50 µM) | IC50 (T. b. rhodesiense) | also measured |
| --- | --- | --- | --- | --- | --- | --- | --- |
| c1ccc(Oc2ccc(-c3cc(N4CCNCC4)[nH]n3)cc2)cc1 [compound 4] | 109 ± 1% | concentration dependent | 43.2±0.1 °C | 0.1 °C | 47.0 ± 0.1 °C | 1.1 µM | EC50 ([1]; 0.5 mM ATP, 0.5 mM adenosine, 0.7 µM TbrAK, read-out: EC50 of TbrAK activation (HPLC assay)): > 750 µM; fold increase of EC50 relative to compound 1 ([1]; HPLC assay): at least 20 fold; solubility [4]: 750 µM (≈ 240 µg/mL); cytotoxicity / general toxicity [5]: increased general toxicity |
| Nc1ncnc2c1ncn2[C@@H]1O[C@H](CO)[C@@H](O)[C@H]1O [adenosine] | – | – | – | – | – | – | ΔTm at 500 µM ([2]; read-out: ΔTm of TbrAK): 7.6 °C; Tm of TbrAK ([2]; substrate at 500 µM): 50.7±0.2 °C; Ki [6]: 6.1 ± 1.4 µM |
| NC(=O)c1ccc[n+]([C@@H]2O[C@H](COP(=O)([O-])OP(=O)(O)OC[C@H]3O[C@@H](n4cnc5c(N)ncnc54)[C@H](O)[C@@H]3O)[C@@H](O)[C@H]2O)c1 [NAD+, reference compound] | – | – | – | – | – | – | Tm of TbrGAPDH ([3]; substrate at 500 µM): 55.6 ± 0.2 °C; ∆Tm of TbrGAPDH ([3]; substrate at 500 µM): 8.0 °C |
| Nc1ncnc2c1ncn2[C@@H]1O[C@H](COP(=O)(O)OP(=O)(O)OP(=O)(O)O)[C@@H](O)[C@H]1O [ATP, reference compound] | – | – | – | – | – | – | Tm of TbrAK ([2]; substrate at 500 µM): 42.8±0.1 °C; ΔTm of TbrAK ([2]; substrate at 500 µM, vs apo TbrAK): −0.3 °C |
| Nc1ccc(Oc2ccc(-c3cc(N4CCOCC4)[nH]n3)cc2)cc1 [compound 2, 4-[4-(5-morpholine-4-yl-1H-pyrazol-3-yl)-phenoxy]phenylamine] | 174 ± 5% | concentration dependent | 45.9±0.4 °C | 2.8 °C | 47.0 ± 0.4 °C | 17.7 µM | fold induction at 50 µM ([1]; 10 min, pH 7, 50 µM compound, read-out: fold increase of TbrAK activity): 1.7; solubility [4]: ≤ 50 µM |
| Nc1ccc(-n2nc(-c3ccc(Oc4ccccc4)cc3)cc2N2CCOCC2)cc1 [compound 3, 4-[5-morpholine-4-yl-3-(4-phenoxyphenyl)-pyrazol-1-yl]phenylamine] | 110 ± 1% | did not activate TbrAK | 42.8±0.2 °C | -0.3 °C | 45.5 ± 0.6 °C | 10.3 µM | – |
| c1ccc(Oc2ccc(-c3cc[nH]n3)cc2)cc1 [compound 5, 3-(4-phenoxyphenyl)-1H-pyrazole] | 102 ± 2% | did not activate TbrAK | 43.4±0.1 °C | 0.3 °C | 46.7 ± 0.2 °C | > 65 µM | IC50 difference between induced and non-induced TbAK RNAi cells [7]: did not exhibit any IC50 difference; IC50 ([5]; read-out: general toxicity IC50): > 136 µM |
| O=CC(O)COP(=O)(O)O (racemic) [DL-GAP, DL-glyceraldehyde-3-phosphate, reference compound] | – | – | – | – | – | – | Tm of TbrGAPDH ([3]; substrate at 500 µM): 50.0 ± 0.7 °C; ∆Tm of TbrGAPDH ([3]; substrate at 500 µM): 2.4 °C |
| adenosine kinase of T. b. rhodesiense (TbrAK) (Trypanosoma brucei brucei TREU927) (protein) MSSAPLRVYVQCNPLLDVSAHVSDEFLVKYGLERGTAILLSERQKGIFDDIEKMPNVRYVPGGSGLNVARVAQWMQQAYKGKFVTYVGCIADDRYGKVLKEAAEHEGIVMAVEHTTKAGSGACAVCITGKERTLVADLGAANHLSSEHMRSPAVVRAMDESRIFYFSGFTLTVDVNHVLQACRKAREVDGLFMINLSAPFIMQFFSAQLGEVLPYTDIIVANRHEAKEFANMMKWDTDCVEEIARRAVSEVPYTGTKGRVVVFTRDIESTVLATKDGVETVPVPQLDQDKVIDMNGAGDAFMGGFLSAYAVGKDLRRCCETGHYTAQEVIQRDGCSFPEKPSFSP | – | – | – | – | – | – | Km [8]: 0.99 ± 0.05 µM |
